Where “and” joins values, the source holds several entries; their conditions need not be identical. Identical values can stand only once. Toxic doses and inconclusive results are not listed.
Tested on: BDF1 mice, P388 leukemia ip, median survival T/C
Experiment: NCI In Vivo Anticancer Drug Screen. Data for tumor model P388 Leukemia (intraperitoneal) in B6D2F1 (BDF1) mice
Details: endpoint: median survival time, higher = longer survival
Summary of the method: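 Compound-treated tumour-bearing mice were compared with vehicle-treated controls. Survival was recorded, and the value is the treated-group measurement divided by the control-group measurement (T/C).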

[1] = dose: 6.25 mg/kg/injection, schedule: Q04DX003 (ip), vehicle: saline
[2] = dose: 12.5 mg/kg/injection, schedule: Q04DX003 (ip), vehicle: saline with Tween-80
[3] = dose: 12.5 mg/kg/injection, schedule: Q01DX009 (ip), vehicle: saline with Tween-80
[4] = dose: 25.0 mg/kg/injection, schedule: Q01DX009 (ip), vehicle: saline with Tween-80
[5] = dose: 50.0 mg/kg/injection, schedule: Q01DX009 (ip), vehicle: saline with Tween-80
[6] = dose: 100.0 mg/kg/injection, schedule: Q01DX009 (ip), vehicle: saline with Tween-80
[7] = dose: 200.0 mg/kg/injection, schedule: Q01DX009 (ip), vehicle: saline with Tween-80
[8] = dose: 100.0 mg/kg/injection, schedule: Q01DX009 (ip), vehicle: other
[9] = dose: 200.0 mg/kg/injection, schedule: Q01DX009 (ip), vehicle: other

OC(CCCCC(O)(c1ccccc1)c1ccccc1)(c1ccccc1)c1ccccc1
T/C (dose: 100.0 mg/kg/injection, schedule: Q01DX001 (ip), vehicle: Klucel (hydroxypropylcellulose) (HPC)): 105 % of control | T/C (dose: 200.0 mg/kg/injection, schedule: Q01DX001 (ip), vehicle: Klucel (hydroxypropylcellulose) (HPC)): 115 % of control | T/C (dose: 400.0 mg/kg/injection, schedule: Q01DX001 (ip), vehicle: Klucel (hydroxypropylcellulose) (HPC)): 100 % of control

CSc1nc(NCc2ccc(Cl)cc2)c2[nH]c(C)nc2n1
T/C (dose: 0.78 mg/kg/injection, schedule: Q01DX009 (ip), vehicle: saline with Tween-80): 122 % of control | T/C (dose: 1.56 mg/kg/injection, schedule: Q01DX009 (ip), vehicle: saline with Tween-80): 101 % of control | T/C (dose: 3.13 mg/kg/injection, schedule: Q01DX009 (ip), vehicle: saline with Tween-80): 97 % of control | T/C (dose: 6.25 mg/kg/injection, schedule: Q01DX009 (ip), vehicle: saline with Tween-80): 93 % of control

Cc1cc(C)c(NS(=O)(=O)c2ccc([N+](=O)[O-])cc2)c(C)c1
T/C (dose: 75.0 mg/kg/injection, schedule: Q01DX001 (ip), vehicle: saline with Tween-80): 100 % of control | T/C (dose: 150.0 mg/kg/injection, schedule: Q01DX001 (ip), vehicle: saline with Tween-80): 90 % of control | T/C (dose: 300.0 mg/kg/injection, schedule: Q01DX001 (ip), vehicle: saline with Tween-80): 100 % of control

NC(=O)c1ccc(N)nc1
T/C [1]: 121 % of control | T/C (dose: 8.33 mg/kg/injection, schedule: Q04DX003 (ip), vehicle: saline with Tween-80): 100 % of control | T/C [2]: 100 % of control | T/C (dose: 18.75 mg/kg/injection, schedule: Q04DX003 (ip), vehicle: saline with Tween-80): 105 % of control and 108 % of control | T/C (dose: 25.0 mg/kg/injection, schedule: Q04DX003 (ip), vehicle: saline): 114 % of control

CCCCN(CCCC)CC(O)c1cc(-c2ccc(Cl)c(Cl)c2)cc2cc(Cl)ccc12 (stereo not given)
T/C [3]: 99 % of control | T/C [4]: 99 % of control | T/C [5]: 92 % of control and 97 % of control

[NH2-].[NH2-].[NH2-].[NH2-].[Pt+4]
T/C [3]: 90 % of control | T/C [4]: 100 % of control | T/C [5]: 90 % of control

O=C(NC(=S)N1CC1)c1ccccc1
T/C [5]: 93 % of control | T/C [6]: 92 % of control | T/C [7]: 104 % of control

NC(=O)c1csc(C2OC(CO)C(O)C2O)n1 (stereo not given)
T/C (dose: 330.0 mg/kg/injection, schedule: Q01DX009 (ip), vehicle: water): 213 % of control | T/C (dose: 500.0 mg/kg/injection, schedule: Q01DX009 (ip), vehicle: water): 243 % of control | T/C (dose: 750.0 mg/kg/injection, schedule: Q01DX009 (ip), vehicle: water): 277 % of control

CCCCCCCCCCCC[n+]1ccc(C)cc1C
T/C (dose: 62.0 micrograms/kg/injection, schedule: Q01DX009 (ip), vehicle: saline): 107 % of control | T/C (dose: 125.0 micrograms/kg/injection, schedule: Q01DX009 (ip), vehicle: saline): 102 % of control | T/C (dose: 250.0 micrograms/kg/injection, schedule: Q01DX009 (ip), vehicle: saline): 113 % of control | T/C (dose: 500.0 micrograms/kg/injection, schedule: Q01DX009 (ip), vehicle: saline): 116 % of control

C=CCOC(=O)c1ccco1
T/C (dose: 6.25 mg/kg/injection, schedule: Q01DX009 (ip), vehicle: Klucel (hydroxypropylcellulose) (HPC)): 116 % of control | T/C (dose: 12.5 mg/kg/injection, schedule: Q01DX009 (ip), vehicle: Klucel (hydroxypropylcellulose) (HPC)): 108 % of control | T/C (dose: 25.0 mg/kg/injection, schedule: Q01DX009 (ip), vehicle: Klucel (hydroxypropylcellulose) (HPC)): 108 % of control | T/C (dose: 50.0 mg/kg/injection, schedule: Q01DX009 (ip), vehicle: Klucel (hydroxypropylcellulose) (HPC)): 100 % of control

C=C1C(=O)OC2C1C(OC(=O)/C(C)=C/C)CC(O)(CCl)C1C(OC(C)=O)C=C(C)C21O (stereo not given)
T/C (dose: 5.0 mg/kg/injection, schedule: Q01DX010 (ip), vehicle: carboxymethylcellulose (CMC)): 100 % of control | T/C (dose: 10.0 mg/kg/injection, schedule: Q01DX010 (ip), vehicle: carboxymethylcellulose (CMC)): 100 % of control | T/C (dose: 20.0 mg/kg/injection, schedule: Q01DX010 (ip), vehicle: carboxymethylcellulose (CMC)): 100 % of control | T/C (dose: 25.0 mg/kg/injection, schedule: Q01DX010 (ip), vehicle: saline): 116 % of control | T/C (dose: 50.0 mg/kg/injection, schedule: Q01DX010 (ip), vehicle: saline): 100 % of control | T/C (dose: 100.0 mg/kg/injection, schedule: Q01DX010 (ip), vehicle: saline): 155 % of control

OC(COC(c1ccccc1)(c1ccccc1)c1ccccc1)C(O)CC1SCCS1 (stereo not given)
T/C (dose: 100.0 mg/kg/injection, schedule: Q01DX009 (ip), vehicle: saline sonified): 100 % of control | T/C (dose: 100.0 mg/kg/injection, schedule: Q04DX003 (ip), vehicle: saline sonified): 112 % of control | T/C (dose: 200.0 mg/kg/injection, schedule: Q01DX009 (ip), vehicle: saline sonified): 110 % of control | T/C (dose: 200.0 mg/kg/injection, schedule: Q04DX003 (ip), vehicle: saline sonified): 100 % of control | T/C (dose: 400.0 mg/kg/injection, schedule: Q01DX009 (ip), vehicle: saline sonified): 95 % of control | T/C (dose: 400.0 mg/kg/injection, schedule: Q04DX003 (ip), vehicle: saline sonified): 108 % of control

CCCCCCCCCCCCCCCCCOc1ccc(I)cc1
T/C (dose: 50.0 mg/kg/injection, schedule: Q01DX001 (ip), vehicle: saline with Tween-80): 95 % of control | T/C (dose: 100.0 mg/kg/injection, schedule: Q01DX001 (ip), vehicle: saline with Tween-80): 100 % of control | T/C (dose: 200.0 mg/kg/injection, schedule: Q01DX001 (ip), vehicle: saline with Tween-80): 90 % of control

CN1CCN=C1c1ccc(NC(=O)c2ccc(C(=O)Nc3ccc(C4=NCCN4C)cc3)cc2)cc1
T/C (dose: 3.13 mg/kg/injection, schedule: Q04DX003 (ip), vehicle: saline): 100 % of control | T/C (dose: 4.0 mg/kg/injection, schedule: Q01DX009 (ip), vehicle: saline): 213 % of control | T/C (dose: 6.0 mg/kg/injection, schedule: Q01DX009 (ip), vehicle: saline): 240 % of control | T/C [1]: 95 % of control | T/C (dose: 9.0 mg/kg/injection, schedule: Q01DX009 (ip), vehicle: saline): 245 % of control

CC12CCC(C)(O)C(CC3=C1CCc1ccccc13)C2=O (stereo not given)
T/C (dose: 75.0 mg/kg/injection, schedule: Q04DX003 (ip), vehicle: saline): 100 % of control | T/C (dose: 150.0 mg/kg/injection, schedule: Q04DX003 (ip), vehicle: saline): 91 % of control | T/C (dose: 300.0 mg/kg/injection, schedule: Q04DX003 (ip), vehicle: saline): 95 % of control

C=CCCN1CCCC1
T/C [3]: 88 % of control | T/C [2]: 100 % of control | T/C [4]: 100 % of control | T/C (dose: 25.0 mg/kg/injection, schedule: Q04DX003 (ip), vehicle: saline with Tween-80): 100 % of control | T/C (dose: 50.0 mg/kg/injection, schedule: Q04DX003 (ip), vehicle: saline with Tween-80): 95 % of control

COc1cccc2c1C(=O)c1c(O)c(COC3CC(N)C(O)C(C)O3)cc(O)c1C2=O (stereo not given)
T/C (dose: 12.5 mg/kg/injection, schedule: Q01DX009 (ip), vehicle: water): 100 % of control | T/C (dose: 25.0 mg/kg/injection, schedule: Q01DX009 (ip), vehicle: water): 100 % of control

O=S(c1ccccc1)C1Cc2ccccc2C1Cl (stereo not given)
T/C (dose: 50.0 mg/kg/injection, schedule: Q01DX009 (ip), vehicle: other): 107 % of control | T/C [8]: 107 % of control | T/C [9]: 115 % of control

O=C(CC(O)(C(F)(F)F)C(F)(F)F)c1ccc([N+](=O)[O-])cc1
T/C [8]: 95 % of control | T/C (dose: 100.0 mg/kg/injection, schedule: Q04DX003 (ip), vehicle: other): 110 % of control | T/C [9]: 95 % of control | T/C (dose: 200.0 mg/kg/injection, schedule: Q04DX003 (ip), vehicle: other): 95 % of control | T/C (dose: 400.0 mg/kg/injection, schedule: Q01DX009 (ip), vehicle: other): 100 % of control | T/C (dose: 400.0 mg/kg/injection, schedule: Q04DX003 (ip), vehicle: other): 100 % of control

O=C(Nc1ccc(Cl)c(Cl)c1)O/N=C/c1ccccn1
T/C (dose: 100.0 mg/kg/injection, schedule: Q04DX003 (ip), vehicle: saline with Tween-80): 100 % of control | T/C (dose: 200.0 mg/kg/injection, schedule: Q04DX003 (ip), vehicle: saline with Tween-80): 90 % of control | T/C (dose: 400.0 mg/kg/injection, schedule: Q04DX003 (ip), vehicle: saline with Tween-80): 95 % of control

C=CCN1C=CC=C/C1=C\C=C(/C#N)C(=O)OCC
T/C [5]: 99 % of control | T/C [6]: 90 % of control | T/C [7]: 103 % of control
